Measurements from ChEMBL document CHEMBL1201862, “PubChem BioAssay data set” (2004).
Blank lines part the entries; values can stand above or below the compound they belong to. Activity calls are given as the source filed them.

Key:
[1] = molecular target: T1, Tyrosine-protein phosphatase non-receptor type 7 (Homo sapiens, UniProt P35236); experiment: inhibitors of human HePTP phosphatase, […], biochemical, absorbance, leukemia target (AID 521); assay type: functional
T1 sequence (P35236 whole entry): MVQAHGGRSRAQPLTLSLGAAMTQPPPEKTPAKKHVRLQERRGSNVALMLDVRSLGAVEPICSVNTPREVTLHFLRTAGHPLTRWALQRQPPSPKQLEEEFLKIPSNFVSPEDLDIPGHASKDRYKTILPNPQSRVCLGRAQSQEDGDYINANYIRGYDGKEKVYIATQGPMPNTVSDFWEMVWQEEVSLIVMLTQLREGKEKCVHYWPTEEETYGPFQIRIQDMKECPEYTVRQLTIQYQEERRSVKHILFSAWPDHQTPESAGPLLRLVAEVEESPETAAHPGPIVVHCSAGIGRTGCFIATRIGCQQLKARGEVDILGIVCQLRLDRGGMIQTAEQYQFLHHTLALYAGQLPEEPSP

[2] = molecular target: T2, Corticotropin-releasing factor receptor 2/Corticotropin-releasing factor-binding protein (Homo sapiens, UniProt P24387+Q13324); experiment: Dose Response confirmation of uHTS hits for small molecule antagonists of the CRF-binding protein and CRF-R2 receptor complex.; assay type: functional; conditions: read-out: IC50_Mean
T2 sequence (Q13324 whole entry): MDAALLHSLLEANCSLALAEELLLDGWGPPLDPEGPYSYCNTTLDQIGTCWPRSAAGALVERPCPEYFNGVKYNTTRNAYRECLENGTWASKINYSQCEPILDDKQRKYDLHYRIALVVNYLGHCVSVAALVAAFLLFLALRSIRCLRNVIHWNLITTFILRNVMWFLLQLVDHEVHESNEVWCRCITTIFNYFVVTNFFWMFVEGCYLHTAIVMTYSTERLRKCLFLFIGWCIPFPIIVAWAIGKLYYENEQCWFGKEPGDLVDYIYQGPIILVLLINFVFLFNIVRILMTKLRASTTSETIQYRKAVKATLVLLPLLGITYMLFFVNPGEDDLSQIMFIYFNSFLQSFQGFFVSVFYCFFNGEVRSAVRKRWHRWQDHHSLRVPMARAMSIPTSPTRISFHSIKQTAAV
T2 sequence (P24387 whole entry): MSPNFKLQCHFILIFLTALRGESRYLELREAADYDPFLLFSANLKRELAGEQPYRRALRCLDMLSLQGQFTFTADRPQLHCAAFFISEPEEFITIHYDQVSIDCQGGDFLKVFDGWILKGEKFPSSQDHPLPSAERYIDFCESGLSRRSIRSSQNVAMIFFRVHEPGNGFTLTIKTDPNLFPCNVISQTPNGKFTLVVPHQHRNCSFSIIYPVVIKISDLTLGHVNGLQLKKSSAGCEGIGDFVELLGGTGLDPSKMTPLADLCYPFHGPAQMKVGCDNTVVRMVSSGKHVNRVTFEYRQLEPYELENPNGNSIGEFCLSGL

[3] = cytotoxicity in KRAS-transformed pancreatic duct cells, primary screen, cell-based, fluorescence, HTS (AID 431); assay type: functional; conditions: Homo sapiens;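 further: cell line used: HPDE-C7K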
[4] = molecular target: T2, Corticotropin-releasing factor receptor 2/Corticotropin-releasing factor-binding protein; experiment: activators of CRF receptor 2 with binding protein – uHTS hits, confirmation (AID 602473); assay type: functional; conditions: read-out: EC50_Mean
[5] = cytotoxicity in HPDE-C7 cells, cell-based, fluorescence, HTS (AID 430); assay type: functional; conditions: Homo sapiens
NADPH oxidase 1 = NADPH oxidase 1 (Homo sapiens, UniProt Q9Y5S8); assay type: functional, cell-based;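 further: Cell-based assay with luminescence read-out, IC50 derived from inhibitor dose-response curves; intracellular ROS from endogenous NOX1 in intact HT29 colon cancer cells; potency of inhibitors that lower the ROS luminescence signal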
Chain of NADPH oxidase 1 (Q9Y5S8 whole entry): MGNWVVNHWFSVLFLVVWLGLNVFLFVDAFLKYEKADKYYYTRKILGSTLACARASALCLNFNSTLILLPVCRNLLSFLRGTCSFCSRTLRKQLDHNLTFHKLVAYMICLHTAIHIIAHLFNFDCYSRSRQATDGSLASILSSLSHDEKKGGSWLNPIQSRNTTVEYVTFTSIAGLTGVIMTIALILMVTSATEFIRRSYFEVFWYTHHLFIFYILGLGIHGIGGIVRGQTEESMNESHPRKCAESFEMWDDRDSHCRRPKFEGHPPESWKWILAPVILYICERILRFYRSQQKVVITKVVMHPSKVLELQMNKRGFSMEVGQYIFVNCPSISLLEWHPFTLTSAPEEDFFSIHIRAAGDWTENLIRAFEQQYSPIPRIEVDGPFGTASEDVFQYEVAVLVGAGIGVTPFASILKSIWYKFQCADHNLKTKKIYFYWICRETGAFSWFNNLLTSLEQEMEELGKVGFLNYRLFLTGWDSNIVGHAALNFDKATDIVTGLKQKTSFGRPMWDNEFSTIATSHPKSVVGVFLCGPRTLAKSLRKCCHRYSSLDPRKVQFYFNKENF

Protein Tat = Protein Tat (Human immunodeficiency virus type 1 group M subtype B (isolate HXB2)(HIV-1), UniProt P04608); assay type: functional;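 further: tat binding to TAR RNA read out by fluorescence polarization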
Chain of Protein Tat (P04608 whole entry): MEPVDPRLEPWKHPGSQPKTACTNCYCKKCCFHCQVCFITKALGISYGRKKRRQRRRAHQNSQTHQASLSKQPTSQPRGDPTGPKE

SUMO-activating enzyme = SUMO-activating enzyme (Homo sapiens, UniProt Q9UBT2); experiment: SUMOylation inhibitor hit validation, confirmation, SUMOylation inhibitor project, biochemical, AlphaScreen (AID 2018); assay type: functional
Chain of SUMO-activating enzyme (Q9UBE0 whole entry): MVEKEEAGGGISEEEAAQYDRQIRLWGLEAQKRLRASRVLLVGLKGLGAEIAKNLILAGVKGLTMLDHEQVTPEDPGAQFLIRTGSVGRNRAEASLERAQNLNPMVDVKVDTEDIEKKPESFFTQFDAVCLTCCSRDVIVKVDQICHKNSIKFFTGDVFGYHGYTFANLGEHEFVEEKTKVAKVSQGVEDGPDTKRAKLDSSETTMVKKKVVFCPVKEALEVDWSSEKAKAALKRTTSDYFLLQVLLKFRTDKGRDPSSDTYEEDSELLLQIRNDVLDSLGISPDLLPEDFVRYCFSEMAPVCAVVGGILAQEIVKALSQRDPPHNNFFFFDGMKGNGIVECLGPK
Chain of SUMO-activating enzyme (Q9UBT2 whole entry): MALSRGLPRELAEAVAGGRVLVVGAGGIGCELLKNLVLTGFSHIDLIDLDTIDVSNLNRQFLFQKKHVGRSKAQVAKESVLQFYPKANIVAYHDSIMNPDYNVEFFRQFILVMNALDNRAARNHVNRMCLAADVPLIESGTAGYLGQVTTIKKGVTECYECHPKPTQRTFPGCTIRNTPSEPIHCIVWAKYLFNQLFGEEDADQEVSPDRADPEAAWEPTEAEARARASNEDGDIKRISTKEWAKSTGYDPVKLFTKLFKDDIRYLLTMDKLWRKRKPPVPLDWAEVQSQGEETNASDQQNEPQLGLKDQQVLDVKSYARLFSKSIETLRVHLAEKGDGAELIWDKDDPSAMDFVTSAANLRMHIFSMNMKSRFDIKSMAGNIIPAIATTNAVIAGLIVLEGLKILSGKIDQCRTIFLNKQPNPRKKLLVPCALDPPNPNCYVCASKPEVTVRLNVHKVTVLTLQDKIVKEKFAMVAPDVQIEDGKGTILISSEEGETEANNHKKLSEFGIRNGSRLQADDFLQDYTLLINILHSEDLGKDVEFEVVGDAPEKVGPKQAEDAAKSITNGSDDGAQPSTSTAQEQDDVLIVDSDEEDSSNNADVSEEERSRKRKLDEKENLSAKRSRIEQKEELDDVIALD

[6] = molecular target: DNA damage-inducible transcript 3 protein (Mus musculus, UniProt P35639); assay type: functional, Cricetulus griseus
Chain of DNA damage-inducible transcript 3 protein (P35639 whole entry): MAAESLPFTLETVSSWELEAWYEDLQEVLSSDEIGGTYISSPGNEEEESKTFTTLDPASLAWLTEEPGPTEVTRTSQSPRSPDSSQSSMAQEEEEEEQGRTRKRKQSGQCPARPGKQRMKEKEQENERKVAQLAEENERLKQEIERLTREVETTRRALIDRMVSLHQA

[7] = molecular target: T3, Mannose-6-phosphate isomerase (Homo sapiens, UniProt P34949); experiment: inhibitors of human PMI, primary screen, biochemical, fluorescence intensity, coupled assay (AID 1209)
T3 sequence (P34949 whole entry): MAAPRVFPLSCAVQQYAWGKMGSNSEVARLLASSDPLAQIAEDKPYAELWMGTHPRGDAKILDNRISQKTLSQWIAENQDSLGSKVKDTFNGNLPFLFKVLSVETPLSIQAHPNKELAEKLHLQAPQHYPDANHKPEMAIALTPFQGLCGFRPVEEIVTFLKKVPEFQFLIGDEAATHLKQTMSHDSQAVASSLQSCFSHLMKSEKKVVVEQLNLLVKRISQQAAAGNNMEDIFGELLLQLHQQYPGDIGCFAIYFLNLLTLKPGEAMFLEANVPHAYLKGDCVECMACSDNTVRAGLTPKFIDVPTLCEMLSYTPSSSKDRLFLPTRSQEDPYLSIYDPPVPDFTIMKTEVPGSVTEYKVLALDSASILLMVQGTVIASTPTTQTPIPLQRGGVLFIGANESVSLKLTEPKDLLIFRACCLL

[8] = molecular target: T3, Mannose-6-phosphate isomerase; experiment: human PMI inhibitors, high substrate, primary screen, biochemical, fluorescence intensity, high mannose 6-phosphate (AID 1220)
Estrogen receptor beta [9] = molecular target: T4, Estrogen receptor beta (Homo sapiens, UniProt Q92731);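 further: recombinant ER-beta bound to coactivator SRC1 peptide in presence of estradiol agonist; inhibitors block coactivator peptide binding and lower the FRET signal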
T4 sequence (Q92731 whole entry): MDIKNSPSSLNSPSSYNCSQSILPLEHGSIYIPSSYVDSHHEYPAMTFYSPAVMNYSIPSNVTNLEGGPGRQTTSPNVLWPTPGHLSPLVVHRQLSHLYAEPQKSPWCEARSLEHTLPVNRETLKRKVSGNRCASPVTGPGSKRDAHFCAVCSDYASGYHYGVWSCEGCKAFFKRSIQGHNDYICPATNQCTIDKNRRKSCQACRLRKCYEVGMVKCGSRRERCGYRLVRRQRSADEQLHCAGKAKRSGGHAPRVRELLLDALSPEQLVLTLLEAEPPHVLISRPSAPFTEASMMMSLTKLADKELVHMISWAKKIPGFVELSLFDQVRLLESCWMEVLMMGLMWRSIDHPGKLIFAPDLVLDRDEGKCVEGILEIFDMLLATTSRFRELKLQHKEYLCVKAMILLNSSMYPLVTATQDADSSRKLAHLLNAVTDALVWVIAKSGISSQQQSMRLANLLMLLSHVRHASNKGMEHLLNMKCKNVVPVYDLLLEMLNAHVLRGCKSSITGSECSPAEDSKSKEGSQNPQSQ

Estrogen receptor beta [10] = molecular target: T4, Estrogen receptor beta; experiment: ERβ–SRC-3 coactivator interaction inhibitors, confirmation, orthogonal assay, biochemical, ELISA, streptavidin-HRP readout (AID 1060)
[11] = Luminescence Cell-Based Dose Retest to Confirm Inhibitors of Cancer Stem Cells. [Related pubchem assays (depositor defined):AID2717, AID2721]; assay type: functional; conditions: Homo sapiens
[12] = C. albicans growth with fluconazole, confirmation, fluorescence, retest (AID 2467); assay type: functional, cell-based
[13] = NIH-3T3 fibroblast cytotoxicity, dose response, cytotoxicity control, cell-based, fluorescence, Alamar Blue, secondary assay (AID 2327); assay type: functional;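 further: NIH-3T3 mouse fibroblasts cultured with fluconazole at 8 µg/mL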
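Wherever AC50 is given: cells exposed to compound for roughly 70 hours or longer before luminescence read.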

IC50 [1]: > 100 µM (not active)
SMILES: COn1cnnc1-c1ccccc1

SMILES: C=C(C)COc1ccc(-c2n[nH]cc2Oc2ccccc2OC)c(O)c1
IC50 [2]: 1.91 µM (active) | EC50 [3]: 9.78 µM (active) | EC50 [4]: > 53 µM (inactive) | EC50 [5]: 12.3 µM (active)

IC50 (NADPH oxidase 1): > 17 µM (not active)
SMILES: COc1cc([N+](=O)[O-])ccc1NC(=O)Nc1ccc(Oc2ccccc2)cc1

SMILES: CC1=Nc2nc3c(c4c(C#N)c(N5CCCCC5)nc(c24)N1)CC(=O)N3c1ccc(C(C)C)cc1.CN(C)C=O
IC50 (Protein Tat): > 100 µM (active) | IC50 (SUMO-activating enzyme): 11.7 µM (active) | Absolute IC50 (CHOP) [6]: 10 µM | IC50 [7]: > 50 µM (not active) | IC50 [8]: > 50 µM (not active)

IC50 (Estrogen receptor beta [9]): 9.58 µM (active) | IC50 (Estrogen receptor beta [10]): 102 µM (not active)
SMILES: COc1cc(CCC(=O)OCC(=O)Nc2ncc(Cl)cc2Cl)cc(OC)c1OC

SMILES: Cc1ccc(S(=O)(=O)c2c(C)nn(C(C)(C)C)c2OC(=O)c2ccc(Br)o2)cc1
AC50 [11]: 1.67 µM (active) | EC50 [12]: 805 nM (active) | EC50 [13]: > 160 µM (inconclusive) | EC50 [3]: 4.56 µM (active) | EC50 [5]: 4.41 µM (active)
